“Also recorded” adds a separate entry of the source.
Legend:
[1] = tested on: HER3; experiment: HER3 tyrosine phosphorylation, Western blot, Calu-3 cells; type: cell-based; details: for effect of ROS inhibitors on HER3 transactivation, statistics: Fig. 4B, mean ± S.D. of 3 experiments, relative to PACAP by ANOVA; for effect of ROS inhibitors on PACAP-induced HER3 tyrosine phosphorylation: Western blot (Fig. 4A), 3 experiments
[2] = tested on: EGFR; details: NSCLC cells ref Moody et al., 2019; cited from earlier work
[3] = tested on: HER2; details: NSCLC cells ref Moody et al., 2019; cited from earlier work
[4] = target: T1, PAC1 (Calu-3 cells) (Homo sapiens, UniProt P41586); experiment: cell-based
T1 sequence (P41586 21-468): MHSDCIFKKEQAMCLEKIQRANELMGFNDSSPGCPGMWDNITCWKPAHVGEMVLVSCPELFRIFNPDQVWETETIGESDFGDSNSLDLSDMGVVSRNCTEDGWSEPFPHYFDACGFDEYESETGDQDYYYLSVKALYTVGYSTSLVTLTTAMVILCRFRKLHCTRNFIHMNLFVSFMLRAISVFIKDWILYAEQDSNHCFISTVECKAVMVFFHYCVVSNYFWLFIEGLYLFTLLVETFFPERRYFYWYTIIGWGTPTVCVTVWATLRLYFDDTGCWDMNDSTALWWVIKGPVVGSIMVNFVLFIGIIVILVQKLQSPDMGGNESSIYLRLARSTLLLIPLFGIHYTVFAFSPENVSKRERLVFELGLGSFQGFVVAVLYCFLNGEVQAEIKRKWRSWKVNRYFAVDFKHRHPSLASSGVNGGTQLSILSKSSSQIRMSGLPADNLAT

[5] = tested on: Calu-3 cells; experiment: Clonogenic assay, Calu-3 cells; type: cell-based
[6] = tested on: NSCLC cells; experiment: Proliferation of NSCLC cells; type: cell-based
[7] = tested on: HER3; details: NSCLC cells ref Lee et al., 2020; cited from earlier work
[8] = tested on: ERK; experiment: ERK phosphorylation, Western blot, Calu-3 cells; type: cell-based
[9] = tested on: HER3; experiment: HER3 tyrosine phosphorylation, NSCLC cells; type: cell-based

## c1ccc2c(c1)[I+]c1ccccc1-2 [DPI, diphenylene iodonium]
[1]
  effect of ROS inhibitors on HER3 transactivation, statistics: not DPI impaired significantly
  effect of ROS inhibitors on PACAP-induced HER3 tyrosine phosphorylation: weakly
[2]
  effect on PACAP-induced EGFR tyrosine phosphorylation (ROS inhibitors): inhibited
[3]
  effect on PACAP-induced HER2 tyrosine phosphorylation (ROS inhibitors): inhibited

## CC(=O)N[C@@H](CS)C(=O)O [N-acetyl cysteine]
[1]; listed as NAC
  effect of ROS inhibitors on HER3 transactivation, statistics: significantly impair; also recorded: impaired significantly
[1]
  effect of ROS inhibitors on PACAP-induced HER3 tyrosine phosphorylation: strongly inhibited
[2]
  effect on PACAP-induced EGFR tyrosine phosphorylation (ROS inhibitors): inhibited
[3]
  effect on PACAP-induced HER2 tyrosine phosphorylation (ROS inhibitors): inhibited

## CSCC[C@H](NC(=O)[C@H](CCC(N)=O)NC(=O)[C@H](CCCCN)NC(=O)[C@H](CCCNC(=N)N)NC(=O)[C@H](Cc1ccc(O)cc1)NC(=O)[C@H](CCCNC(=N)N)NC(=O)[C@H](CO)NC(=O)[C@H](Cc1ccc(O)cc1)NC(=O)[C@H](CO)NC(=O)[C@H](CC(=O)O)NC(=O)[C@@H](NC(=O)[C@@H](N)Cc1ccccc1)[C@@H](C)O)C(=O)N[C@@H](C)C(=O)N[C@H](C(=O)N[C@@H](CCCCN)C(=O)N[C@@H](CCCCN)C(=O)N[C@@H](Cc1ccc(O)cc1)C(=O)N[C@@H](CC(C)C)C(=O)N[C@@H](C)C(=O)N[C@@H](C)C(=O)N[C@H](C(=O)N[C@@H](CC(C)C)C(=O)NCC(=O)N[C@@H](CCCCN)C(=O)N[C@@H](CCCNC(=N)N)C(=O)N[C@@H](Cc1ccc(O)cc1)C(=O)N[C@@H](CCCCN)C(=O)N[C@@H](CCC(N)=O)C(=O)N[C@@H](CCCNC(=N)N)C(=O)N[C@H](C(=O)N[C@@H](CCCCN)C(=O)N[C@@H](CC(N)=O)C(=O)N[C@@H](CCCCN)C(N)=O)C(C)C)C(C)C)C(C)C [PACAP(6–38)]
[4]
  IC50: 31.4 ± 4.9 nM

## O=S(=O)(O)c1cc(O)c(O)c(S(=O)(=O)O)c1 [Tiron]
[1]
  effect of ROS inhibitors on HER3 transactivation, statistics: significantly impair
  effect of ROS inhibitors on PACAP-induced HER3 tyrosine phosphorylation: strongly inhibited
[1]; listed as Tir
  effect of ROS inhibitors on HER3 transactivation, statistics: impaired significantly
[2]
  effect on PACAP-induced EGFR tyrosine phosphorylation (ROS inhibitors): inhibited
[3]
  effect on PACAP-induced HER2 tyrosine phosphorylation (ROS inhibitors): inhibited

## COc1cc2ncnc(Nc3ccc(F)c(Cl)c3)c2cc1OCCCN1CCOCC1 [gefitinib]
[5]; 100 nM PACAP-27
  effect on PACAP-27-induced increase in colony number: impaired
[5]; with 100 nM PACAP-27, PACAP(6–38) 5 μM, gefitinib 1 μM, trastuzumab 0.1 μg/ml, mAb3481 0.1 μg/ml, mean ± S.D. of 3 determinations
  Colony number, + PACAP: 43 ± 5
[6]
  proliferation of NSCLC cells: inhibited proliferation

## Bombesin
[7]
  HER3 tyrosine phosphorylation: increases HER3 tyrosine phosphorylation

## neuregulin (NRG)-1 [NRG-1]
[1]; Calu-3, PACAP-27 1000 nM or NRG-1 1 μg/ml, 5, 10 and 30 min
  HER3 phosphorylation, 5, 10 and 30 min: moderate
[1]; Calu-3, PACAP-27 1000 nM or NRG-1 1 μg/ml, 2 min
  HER3 phosphorylation, 2 min: weakly stimulates
[1]; Fig. 2D, NRG-1 1 μg/ml, Calu-3, 2, 5, 10 and 30 min
  HER3 phosphorylation, densitometry statistics, 2, 5, 10 and 30 min: significantly increased
[8]; Fig. 2D, NRG-1 1 μg/ml, 2, 5, 10 and 30 min
  ERK phosphorylation, densitometry statistics, 2, 5, 10 and 30 min: significantly increased
[8]; PACAP-27 1000 nM or NRG-1 1 μg/ml, 5, 10 and 30 min
  ERK phosphorylation, 5, 10 and 30 min: moderate
[8]; PACAP-27 1000 nM or NRG-1 1 μg/ml, 2 min
  ERK phosphorylation, 2 min: weakly stimulates
[5]; NRG-1 0.1 μg/ml, PACAP-27 100 nM, 2 weeks
  increase in colony number: 33%
[6]
  proliferation of NSCLC cells: increased the proliferation
[9]
  HER3 tyrosine phosphorylation, NSCLC cells: increased HER3 tyrosine phosphorylation

— PMC8844836 (Journal of molecular neuroscience : MN, 2020)
